# Test results reported in PMC5317004 (Scientific Reports, 2017).
# Where “and” joins values, the source holds several entries; their conditions need not be identical. Identical values can stand only once.
# Experiments:
# [1] = test system: T1, homomeric GluClβR; assay: Effect of IVM on Glu-elicited currents of homomeric GluClβ receptors in CHO cells (whole-cell patch clamp); format: cell-based, C. elegans; settings: pre-application of 2 μM IVM for 10 seconds, 100 mM Glu, +60 mV, four cells
# T1 construct: homomeric receptors assembled from the full-length C. elegans GluClβ subunit; expressed in transfected cells; host or cells: CHO-K1 cells, transient transfection, pcDNA3.1
# Procedure: Figure 9 Effect of IVM on homomeric GluClβ receptors. (A) Representative current traces obtained by the indicated application protocol. Glu (100 mM) was applied for either 350 ms to obtain peak IP0 at −60 mV, or 600 ms to obtain peaks IP1, IP2 and IP3 at +60 mV. Note that the responses at both membrane voltages, −60 and +60 mV, start to desensitize appreciably before the end of Glu application. IVM (2 μM) was applied for 10 seconds. Asterisk indicates a 25-sec-long wash between the second and third Glu applications. (B) Current-voltage (I/V) relations obtained in a different cell than in A upon the application of Glu (100 mM) over a voltage ramp lasting 200 ms. […] Current ratios were extracted from experiments performed as shown in (A). Mean ± SEM of four cells are presented. Paired, two-tailed Student’s t-tests indicate that **0.001 < P < 0.01 and ***P < 0.0002.
# Supplementary Information
# Trapping of ivermectin by a pentameric ligand-gated ion channel upon open-to-cl ose d i someri zati on N. Degani-Katzav, M. Klein, M. Har-Even, R. Gortler, R. Tobi and Y. Paas*
# Supplementary Materials and Methods […]
# The electrode resistance was 6-10 MΩ when filled with the pipette solution. […] The currents w ere measured with an Axopatch 200B patch-clamp amplifier (Molecular Devices, Sunnyvale, CA) and a Digidata 1440A interface (Molecular Devices). […]
# [2] = LUVs 6 mM, 5 minutes incubation plus 20-minutes ultracentrifugation; depending on the LUVs' lipid composition; cited from earlier work
# [3] = test system: α7-nAChR; settings: cited from earlier work
smiles,measurement,setting,value
"CC[C@H](C)[C@H]1O[C@]2(CC[C@@H]1C)C[C@@H]1C[C@@H](C/C=C(\C)[C@@H](O[C@H]3C[C@H](OC)[C@@H](O[C@H]4C[C@H](OC)[C@@H](O)[C@H](C)O4)[C@H](C)O3)[C@@H](C)/C=C/C=C3\CO[C@@H]4[C@H](O)C(C)=C[C@@H](C(=O)O1)[C@]34O)O2 [IVM, Ivermectin]",Glu response remaining after IVM pre-application (IP2/IP1 ratio),[1],~67%
same,depletion of IVM from the aqueous solution,[2],50% and 70%
same,decrease of the ACh-EC50 by IVM,[3],20 fold
